Data on 4 compounds can be found in US10501411B2, “Substituted benzamides” (Hoffmann-La Roche Inc., priority 2009, dated 2019).

Assay [1] has as its target mouse TAAR1 (Mus musculus (Mouse), UniProt Q923Y8). As to the kind of experiment: Radioligand binding assay on mouse TAAR1. Conditions: for Ki: mouse TAAR1, HEK-293 membranes, first value of the mouse/rat pair. The protocol: (§1) Construction of TAAR Expression Plasmids and Stably Transfected Cell Lines
(§2) For the construction of expression plasmids the coding sequences of human, rat and mouse TAAR 1 were amplified from genomic DNA essentially as described by Lindemann et al.. The Expand High Fidelity PCR System (Roche Diagnostics) was used with 1.5 mM Mg^2+ and purified PCR products were cloned into pCR2.1-TOPO cloning vector (Invitrogen) following the instructions of the manufacturer. PCR products were subcloned into the pIRESneo2 vector (BD Clontech, Palo Alto, Calif.), and expression vectors were sequence verified before introduction in cell lines.
(§3) HEK293 cells (ATCC #CRL-1573) were cultured essentially as described by Lindemann et al. (2005). For the generation of stably transfected cell lines HEK293 cells were transfected with the pIRESneo2 expression plasmids containing the TAAR coding sequences (described above) with Lipofectamine 2000 (Invitrogen) according to the instructions of the manufacturer, and 24 hrs post transfection the culture medium was supplemented with 1 mg/ml G418 (Sigma, Buchs, Switzerland). After a culture period of about 10 d clones were isolated, expanded and tested for responsiveness to trace amines (all compounds purchased from Sigma) with the cAMP Biotrak Enzyme immunoassay (EIA) System (Amersham) following the non-acetylation EIA procedure provided by the manufacturer.
Radioligand Binding Assay on Mouse TAAR1
(§4) Membrane Preparation and Radioligand Binding.
HEK-293 cells stably expressing mouse TAAR1 were maintained at 37° C. and 5% CO2 in DMEM high glucose medium, containing fetal calf serum (10%, heat inactivated for 30 min at 56° C.), penicillin/streptomycin (1%), and 375 μg/ml geneticin (Gibco). […] With each new membrane batch the dissociation constant (Kd) was determined via a saturation curve. […] After addition of 45 μl of Microscint 40 (PerkinElmer) the Unifilter-96 plate was sealed and after 1 hr the ratioactivity counted using a TopCount Microplate Scintillation Counter (Packard Instrument Company).

In assay [2] the target is rat TAAR1 (Rattus norvegicus (Rat), UniProt Q923Y9). As to the kind of experiment: Radioligand binding assay on rat TAAR1. Conditions: for Ki: rat TAAR1, HEK-293 membranes, second value of the mouse/rat pair. The protocol:
as §1, §2, §3
Radioligand Binding Assay on Rat TAAR1
as §4
HEK-293 cells stably expressing rat TAAR1 were maintained at 37° C. and 5% CO2 in DMEM high glucose medium, containing fetal calf serum (10%, heat inactivated for 30 min at 56° C.), penicillin/streptomycin (1%), and 375 μg/ml geneticin (Gibco). Cells were released from culture flasks using trypsin/EDTA, harvested, washed twice with ice-cold PBS (without Ca^2+ and Mg^2+), pelleted at 1,000 rpm for 5 min at 4° C., frozen and stored at −80° C. Frozen pellets were suspended in 20 ml HEPES-NaOH (20 mM, pH 7.4) containing 10 mM EDTA and homogenized with a Polytron (PT 6000, Kinematica) at 14,000 rpm for 20 s. The homogenate was centrifuged at 48,000×g for 30 min at 4° C. Subsequently, the supernatant was removed and discarded, and the pellet resuspended in 20 ml HEPES-NaOH (20 mM, pH 7.4) containing 0.1 mM EDTA using the Polytron (20 s at 14,000 rpm). This procedure was repeated and the final pellet resuspended in HEPES-NaOH containing 0.1 mM EDTA and homogenized using the Polytron. […] With each new membrane batch the dissociation constant (Kd) was determined via a saturation curve. […] After addition of 45 μl of Microscint 40 (PerkinElmer) the Unifilter-96 plate was sealed and after 1 hr the ratioactivity counted using a TopCount Microplate Scintillation Counter (Packard Instrument Company).

SMILES strings stand for the structures.

Sequence of rat TAAR1 (Q923Y9 whole entry): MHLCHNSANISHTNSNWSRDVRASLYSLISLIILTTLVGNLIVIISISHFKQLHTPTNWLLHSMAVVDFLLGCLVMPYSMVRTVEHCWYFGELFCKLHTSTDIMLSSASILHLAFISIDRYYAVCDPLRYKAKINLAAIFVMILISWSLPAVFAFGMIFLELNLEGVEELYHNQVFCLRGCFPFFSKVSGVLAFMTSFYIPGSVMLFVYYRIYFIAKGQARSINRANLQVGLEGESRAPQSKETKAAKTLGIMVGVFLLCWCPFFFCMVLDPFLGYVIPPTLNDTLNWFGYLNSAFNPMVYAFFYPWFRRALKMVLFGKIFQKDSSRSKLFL
Sequence of mouse TAAR1 (Q923Y8 whole entry): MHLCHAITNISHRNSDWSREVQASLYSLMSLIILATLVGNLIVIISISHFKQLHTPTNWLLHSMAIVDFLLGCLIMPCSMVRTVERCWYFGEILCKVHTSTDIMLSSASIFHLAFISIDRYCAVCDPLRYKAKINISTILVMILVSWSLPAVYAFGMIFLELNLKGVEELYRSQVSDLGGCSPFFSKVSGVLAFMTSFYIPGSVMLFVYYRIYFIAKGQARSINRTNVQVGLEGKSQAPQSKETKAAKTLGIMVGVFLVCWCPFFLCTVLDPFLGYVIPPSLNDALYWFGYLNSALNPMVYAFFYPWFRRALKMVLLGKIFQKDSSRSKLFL

For `CCN(C[C@H]1COC(N)=N1)c1ccccc1` [^3[H]—(S)-4-[(ethyl-phenyl-amino)-methyl]-4,5-dihydro-oxazol-2-ylamine, reference compound], the dissociation constant Kd – broadly, the free concentration of one partner at which half of the binding sites on the other are occupied at equilibrium, for simple one-to-one binding – is approximately 0.7 nM in assay [1] (mouse TAAR1 membranes, saturation curve, read-out: dissociation constant (Kd) of the radioligand) and approximately 2.3 nM in assay [2] (rat TAAR1 membranes, saturation curve, read-out: dissociation constant (Kd) of the radioligand).

Consider `O=C(Nc1cccc(OC2CCNC2)c1)c1ccc(Cl)cc1` (racemic) [Example 70, (RS)-4-Chloro-N-[3-(pyrrolidin-3-yloxy)-phenyl]-benzamide], for which the inhibition constant (Ki) (in general, a measure of affinity in units of concentration, obtained from inhibition or displacement) in assay [1] came to 0.0097 µM; in assay [2] it was 0.0935 µM.

With `CC1(c2ccc(NC(=O)c3ccc(Cl)cc3)cc2)CCN(Cc2ccccc2)C1` (racemic) [Example 40, (RS)—N-[4-(1-Benzyl-3-methyl-pyrrolidin-3-yl)-phenyl]-4-chloro-benzamide], the Ki in assay [2] turned out to be 0.522 µM.

On to `CC(CC(F)(F)F)OC(=O)Nc1ccc(C2CCNC2)cc1` (racemic) [Example 131, (RS)-(4-Pyrrolidin-3-yl-phenyl)-carbamic acid (RS)-3,3,3-trifluoro-1-methyl-propyl ester], for which the values for the inhibitory constant (Ki) in assay [1] and in assay [2] were 0.0208 µM and 0.0219 µM, respectively.
